Laboratory results from patent publication US20260167622A1, “PAN-KRAS DEGRADING AGENT, AND PREPARATION METHOD THEREFOR AND USE THEREOF” (LEADINGTAC PHARMACEUTICAL (SHAOXING) CO., LTD., priority 2022, published 2026).

How the values were obtained:
[1] = system: KRAS G12V mutant human colorectal cancer cell SW620; test: 3D cell proliferation inhibition assay, SW620; format: cell-based; conditions: SW-620, 168 h, 3D culture, 7 days, CTG
Summary of the method: (§1)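 Cells seeded in low-adsorption plates at 5×10^2 cells/well (MKN1 1×10^3) with compounds at final 10000–0.026 nM, 0.2% DMSO, 3D culture 7 days at 37 °C. Viability by CellTiter-Glo luminescence; inhibition normalised to DMSO and medium-only controls, IC50 from nonlinear log-concentration fit.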

Human KRAS G12V = molecular target: T1, Human KRAS G12V (Homo sapiens, UniProt P01116, G12V); test: KRAS-G12V/GTP binding assay (HTRF kit); conditions: 25° C., 1 h
T1 construct: purchased PerkinElmer
T1 sequence (P01116 1-188 isoform P01116-2 G12V): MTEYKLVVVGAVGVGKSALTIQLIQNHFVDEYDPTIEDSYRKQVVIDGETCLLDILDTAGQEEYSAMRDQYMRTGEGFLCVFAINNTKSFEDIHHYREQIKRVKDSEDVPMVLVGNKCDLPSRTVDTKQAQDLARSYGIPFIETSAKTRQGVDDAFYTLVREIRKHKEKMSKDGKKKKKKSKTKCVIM
Description: Test Example 2: KRAS G12V Binding Assay
In this method, the inhibitory effects of the compounds on the binding of KRAS G12V to GTP were assayed by a homogeneous time-resolved fluorescence (HTRF) technique using a KRAS-G12V/GTP binding assay kit (PerkinElmer).
The experimental procedures were as follows (refer to the kit instructions for detailed test methods): the compounds of the present disclosure were each firstly dissolved in DMSO at a concentration of 20 mM, and then diluted in an equal gradient with a buffer in the kit, so that the final concentrations of the test compounds in the reaction system were in a range of 0.02-5000 nM, and the final concentration of DMSO was 0.5%. 5 μL of each compound was incubated with 5 μL of 1× Human KRAS G12V 6His-tagged (PerkinElmer), 5 µL of 1×6His Eu Cryptate Antibody (PerkinElmer), and 5 μL of 1×GTP Red reagent (PerkinElmer) in a 384-well plate (Greiner) at 25° C. for 1 h. After the incubation was completed, the fluorescence intensity of each well was measured at the excitation wavelength of 337 nm and the emission wavelengths of 620 nm and 665 nm with an EnVision microplate reader (PerkinElmer) in the HTRF mode, and Ratio values were calculated using the formula: Ratio=(665 nm/620 nm)×10^4. The inhibition rates of the compounds at each concentration were calculated by comparing the fluorescence intensity ratio with that of the control group. Then non-linear curve fittings for logarithmic concentration-inhibition rate were performed using the GraphPad Prism 8 analysis software, and the IC50 values of the compounds were obtained (Table 3).

[2] = system: KRAS G13D mutant human colorectal cancer epithelial cell DLD-1; test: 3D cell proliferation inhibition assay, DLD-1; format: cell-based; conditions: DLD-1, 168 h, 3D culture, 7 days, CTG
Summary of the method: as §1

[3] = system: KRAS G12C mutant human non-small cell lung cancer cell NCI-H358; test: 3D cell proliferation inhibition assay, NCI-H358; format: cell-based; conditions: NCI-H358, 168 h, 3D culture, 7 days, CTG
Summary of the method: as §1

[4] = system: KRAS G12D mutant human metastatic pancreatic cancer cell AsPc-1; test: 3D cell proliferation inhibition assay, AsPc-1; format: cell-based; conditions: ASPC1, 168 h, 3D culture, 7 days, CTG
Summary of the method: as §1

[5] = system: KRAS G12D mutant human lung cancer cell A427; test: 3D cell proliferation inhibition assay, A427; format: cell-based; conditions: A-427, 168 h, 3D culture, 7 days, CTG
Summary of the method: as §1

[6] = system: KRAS WT human gastric cancer cell MKN1; test: 3D cell proliferation inhibition assay, MKN1; format: cell-based; conditions: MKN-1, 168 h, 3D culture, 7 days, CTG
Summary of the method: as §1

[7] = system: KRAS G12V mutant human lung squamous carcinoma cell SW900; test: 3D cell proliferation inhibition assay, SW900; format: cell-based; conditions: SW900, 168 h, 3D culture, 7 days, CTG

IC50 [1] [nM]	IC50 (Human KRAS G12V) [nM]	IC50 [2] [nM]	IC50 [3] [nM]	IC50 [4] [nM]	IC50 [5] [nM]	IC50 [6] [nM]	IC50 [7] [nM]	Compound
1.41	≤ 500	≤ 50	≤ 50	≤ 50	≤ 50	≤ 50	≤ 50	C#Cc1c(F)ccc2cc(O)cc(-c3ncc4c(N5CCC[C@@](C)(O)C5)nc(OCC5(CN6CCN(CC7CCC8(CC7)CCN(C(=O)c7ccc(Cl)c(N9CCC(=O)NC9=O)c7)CC8)CC6)CC5)nc4c3F)c12 [Example 1, (R)-1-(2-chloro-5-(9-((4-((1-(((7-(8-ethynyl-7-fluoro-3-hydroxynaphthalen-1-yl)-8-fluoro-4-(3-hydroxy-3-methylpiperidin-1-yl)pyrido[4,3-d]pyrimidin-2-yl)oxy)methyl)cyclopropyl)methyl)piperazin-1-yl)methyl)-3-azaspiro[5.5]undecane-3-carbonyl)phenyl)dihydropyrimidine-2,4(1H,3H)-dione]
1.85	≤ 500	≤ 50	≤ 50	≤ 50	≤ 50	≤ 50	≤ 50	CCc1c(F)ccc2cc(O)cc(-c3ncc4c(N5CCC[C@@](C)(O)C5)nc(OCC5(CN6CCN(CC7CCC8(CC7)CCN(C(=O)c7ccc(Cl)c(N9CCC(=O)NC9=O)c7)CC8)CC6)CC5)nc4c3F)c12 [Example 2, (R)-1-(2-chloro-5-(9-((4-((1-(((7-(8-ethyl-7-fluoro-3-hydroxynaphthalen-1-yl)-8-fluoro-4-(3-hydroxy-3-methylpiperidin-1-yl)pyrido[4,3-d]pyrimidin-2-yl)oxy)methyl)cyclopropyl)methyl)piperazin-1-yl)methyl)-3-azaspiro[5.5]undecane-3-carbonyl)phenyl)dihydropyrimidine-2,4(1H,3H)-dione]
2.52	≤ 500	≤ 50	≤ 50	≤ 50	≤ 50	≤ 50	100 to 500	CCc1cccc2cc(O)cc(-c3ncc4c(N5CCC[C@@](C)(O)C5)nc(OCC5(CN6CCN(CC7CCC8(CC7)CCN(C(=O)c7ccc(Cl)c(N9CCC(=O)NC9=O)c7)CC8)CC6)CC5)nc4c3F)c12 [Example 3, (R)-1-(2-chloro-5-(9-((4-((1-(((7-(8-ethyl-3-hydroxynaphthalen-1-yl)-8-fluoro-4-(3-hydroxy-3-methylpiperidin-1-yl)pyrido[4,3-d]pyrimidin-2-yl)oxy)methyl)cyclopropyl)methyl)piperazin-1-yl)methyl)-3-azaspiro[5.5]undecane-3-carbonyl)phenyl)dihydropyrimidine-2,4(1H,3H)-dione]
1.28	≤ 500	≤ 50	≤ 50	≤ 50	≤ 50	≤ 50	≤ 50	C#Cc1c(F)ccc2cc(O)cc(-c3ncc4c(N5CCC[C@@](C)(O)C5)nc(OCC5(CN6CCN(CC7CCC8(CC7)CCN(C(=O)c7ccc(C)c(N9CCC(=O)NC9=O)c7)CC8)CC6)CC5)nc4c3F)c12 [Example 6, (R)-1-(5-(9-((4-((1-(((7-(8-ethynyl-7-fluoro-3-hydroxynaphthalen-1-yl)-8-fluoro-4-(3-hydroxy-3-methylpiperidin-1-yl)pyrido[4,3-d]pyrimidin-2-yl)oxy)methyl)cyclopropyl)methyl)piperazin-1-yl)methyl)-3-azaspiro[5.5]undecane-3-carbonyl)-2-methylphenyl)dihydropyrimidine-2,4(1H,3H)-dione]
1.81	≤ 500	≤ 50	≤ 50	≤ 50	≤ 50	≤ 50	≤ 50	C#Cc1c(F)ccc2cc(O)cc(-c3ncc4c(N5CCC[C@@](C)(O)C5)nc(OCC5(CN6CCN(CC7CCC8(CC7)CCN(C(=O)c7ccc(OC)c(N9CCC(=O)NC9=O)c7)CC8)CC6)CC5)nc4c3F)c12 [Example 7, (R)-1-(5-(9-((4-((1-(((7-(8-ethynyl-7-fluoro-3-hydroxynaphthalen-1-yl)-8-fluoro-4-(3-hydroxy-3-methylpiperidin-1-yl)pyrido[4,3-d]pyrimidin-2-yl)oxy)methyl)cyclopropyl)methyl)piperazin-1-yl)methyl)-3-azaspiro[5.5]undecane-3-carbonyl)-2-methoxyphenyl)dihydropyrimidine-2,4(1H,3H)-dione]
5.43	500 to 1000	≤ 50	≤ 50	≤ 50	50 to 100	≤ 50	≤ 50	C#Cc1cccc2cc(O)cc(-c3ncc4c(N5CCC[C@@](C)(O)C5)nc(OCC5(CN6CCN(CC7CCC8(CC7)CCN(C(=O)c7ccc(Cl)c(N9CCC(=O)NC9=O)c7)CC8)CC6)CC5)nc4c3F)c12 [Example 11, (R)-1-(2-chloro-5-(9-((4-((1-(((7-(8-ethynyl-3-hydroxynaphthalen-1-yl)-8-fluoro-4-(3-hydroxy-3-methylpiperidin-1-yl)pyrido[4,3-d]pyrimidin-2-yl)oxy)methyl)cyclopropyl)methyl)piperazin-1-yl)methyl)-3-azaspiro[5.5]undecane-3-carbonyl)phenyl)dihydropyrimidine-2,4(1H,3H)-dione]
